Drawing on PubChem BioAssay (NCI), this text covers TGI for nine compounds.

The structures appear in SMILES notation.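 All cell lines were grown in 96-well plates and treated with compound for 48 hours. TGI: total growth inhibition.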

Some test systems named below: HS 578T breast; MDA-MB-231 breast; NCI-H522 lung; UACC-257 melanoma; NCI/ADR-RES ovarian; HCT-15 colon; A549 NSCLC; NCI-H23 lung; MALME-3M melanoma; IGROV1 ovarian; TK-10 renal; 786-0 renal; OVCAR-3 ovarian; K-562 leukemia; MDA-MB-435; SN12C renal; SW-620 colon; SR leukemia; OVCAR-4 ovarian.
What all share (test): DTP human tumour cell line panel, 48 h

The term TGI denotes the concentration at which net growth stops. Turning to `O=C1NC2ON=C(c3ccccc3)C2C2ON=C(c3ccccc3)N12` (configuration not stated), the TGI in the assay on HS 578T breast, with MDA-MB-231 breast, with NCI-H522 lung, in the assay on UACC-257 melanoma, in the assay with NCI/ADR-RES ovarian and in the assay on HCT-15 colon was more than 100 µM throughout. For the same compound, the TGI with A549 NSCLC, in the assay on NCI-H23 lung, with MALME-3M melanoma, in the assay with IGROV1 ovarian, in the assay with TK-10 renal and in the assay on 786-0 renal was more than 100 µM in each case. The concentration for total growth inhibition (TGI) in the assay with OVCAR-3 ovarian is more than 100 µM.

For `CC1C2(C)OC(=N)C(C#N)(C(c3ccccc3)O2)C1(C#N)C#N` (configuration not stated), the TGI in the assay with HS 578T breast was 78.6 µM; with K-562 leukemia, more than 100 µM; with MDA-MB-231 breast, 35.4 µM; with UACC-257 melanoma it was 68.7 µM; with MDA-MB-435, more than 100 µM; in the assay on NCI/ADR-RES ovarian, more than 100 µM. Moreover, the total growth inhibition concentration (TGI) in the assay on HCT-15 colon is 22.9 µM; with A549 NSCLC, more than 100 µM; in the assay on NCI-H23 lung, 78.2 µM; with SN12C renal it was 32 µM; in the assay on MALME-3M melanoma it was 90.3 µM; in the assay with IGROV1 ovarian, more than 100 µM. For the same compound, the figures for the TGI with TK-10 renal, in the assay on 786-0 renal and with OVCAR-3 ovarian were more than 100 µM, 51.1 µM and 29.1 µM, respectively.

Take `Cc1cc2ccccc2n2c1nc1ccccc12`: the TGI in the assay on HS 578T breast, in the assay with K-562 leukemia, in the assay on UACC-257 melanoma, with MDA-MB-435, with NCI/ADR-RES ovarian and in the assay on SW-620 colon was more than 100 µM in each case. For the same compound, the TGI in the assay on HCT-15 colon, in the assay with A549 NSCLC, in the assay with NCI-H23 lung, in the assay with SN12C renal, in the assay with MALME-3M melanoma and in the assay on IGROV1 ovarian was more than 100 µM throughout. The TGI with TK-10 renal, in the assay on 786-0 renal, with OVCAR-3 ovarian and in the assay on SR leukemia was more than 100 µM throughout.

Turning to `C=C1c2ccccc2C(=O)c2c1c1c(C(=O)OC)c(O)ccc1n2Cc1ccccc1`, the total growth inhibition concentration (TGI) in the assay on HS 578T breast is 1.73 µM; in the assay with K-562 leukemia, 1.55 µM; with MDA-MB-231 breast it was 1.54 µM; with NCI-H522 lung, 0.795 µM; in the assay on UACC-257 melanoma, 5.98 µM; in the assay with MDA-MB-435, 0.885 µM. For the same compound, the concentration for total growth inhibition (TGI) came to 0.723 µM in the assay with NCI/ADR-RES ovarian; 1.42 µM in the assay with SW-620 colon; 1.2 µM in the assay on HCT-15 colon; 3.6 µM in the assay with A549 NSCLC; 2.8 µM in the assay on NCI-H23 lung; 0.939 µM in the assay with SN12C renal. For the same compound, the TGI in the assay on MALME-3M melanoma was 1.18 µM; with OVCAR-4 ovarian, 1.77 µM; with IGROV1 ovarian it was 0.799 µM; with TK-10 renal, 1.55 µM; in the assay with 786-0 renal, 0.525 µM; with OVCAR-3 ovarian, 0.392 µM.

Regarding `CCOC(=O)c1cccn1S(=O)(=O)c1cc(Cl)ccc1NC(=O)CC`, the TGI is more than 100 µM with HS 578T breast; more than 100 µM in the assay with K-562 leukemia; more than 100 µM with MDA-MB-231 breast; 63.1 µM in the assay with NCI-H522 lung; more than 100 µM in the assay on UACC-257 melanoma; more than 100 µM in the assay with MDA-MB-435. Moreover, the total growth inhibition concentration (TGI) with SW-620 colon, in the assay with HCT-15 colon, with A549 NSCLC, in the assay with SN12C renal, in the assay with OVCAR-4 ovarian and in the assay with IGROV1 ovarian was more than 100 µM throughout. Moreover, the total growth inhibition concentration (TGI) in the assay with TK-10 renal, in the assay on 786-0 renal and in the assay with OVCAR-3 ovarian was more than 100 µM in each case.

As for `COc1ccc(Nc2nnc(-c3nsc4ccccc34)s2)cc1`, the TGI with HS 578T breast, with K-562 leukemia, in the assay with MDA-MB-231 breast, with UACC-257 melanoma, with MDA-MB-435 and in the assay with NCI/ADR-RES ovarian was more than 100 µM in each case. The total growth inhibition concentration (TGI) with SW-620 colon is more than 100 µM; in the assay on HCT-15 colon it was more than 100 µM; in the assay on A549 NSCLC, more than 100 µM; with NCI-H23 lung, more than 100 µM; with SN12C renal it was more than 100 µM; with OVCAR-4 ovarian, 6.73 µM. The TGI in the assay with IGROV1 ovarian was more than 100 µM; in the assay with TK-10 renal, more than 88.5 µM; with 786-0 renal, 9.77 µM; with OVCAR-3 ovarian it was more than 100 µM; with SR leukemia it was more than 100 µM.

Regarding `CNc1ncnc2c1ncn2C1C=CC(COS(N)(=O)=O)C1` (configuration not stated), the TGI in the assay on HS 578T breast, in the assay on K-562 leukemia, with NCI-H522 lung, in the assay with UACC-257 melanoma, with MDA-MB-435 and in the assay with NCI/ADR-RES ovarian was more than 100 µM in each case. Further, the total growth inhibition concentration (TGI) with SW-620 colon, with HCT-15 colon, in the assay on A549 NSCLC, in the assay on NCI-H23 lung, in the assay on SN12C renal and with MALME-3M melanoma was more than 100 µM throughout. Also, the TGI with OVCAR-4 ovarian, with IGROV1 ovarian, in the assay on 786-0 renal, in the assay on OVCAR-3 ovarian and in the assay with SR leukemia was more than 100 µM in each case.

Take `COC(=O)[C@@H]1CN(C(C)=O)C(=O)N1`: the TGI in the assay on HS 578T breast, with K-562 leukemia, with MDA-MB-231 breast, in the assay on NCI-H522 lung, in the assay with UACC-257 melanoma and in the assay on MDA-MB-435 was more than 100 µM each time. Further, the concentration for total growth inhibition (TGI) in the assay on NCI/ADR-RES ovarian, with SW-620 colon, in the assay on HCT-15 colon, in the assay with A549 NSCLC, in the assay on NCI-H23 lung and with SN12C renal was more than 100 µM in each case. Further, the TGI with MALME-3M melanoma, in the assay with OVCAR-4 ovarian, in the assay on IGROV1 ovarian, in the assay with TK-10 renal, with 786-0 renal and in the assay with OVCAR-3 ovarian was more than 100 µM throughout.

For the compound `Cn1c(=O)c(Br)c(C=O)n(CCO[N+](=O)[O-])c1=O`, the concentration for total growth inhibition (TGI) was more than 100 µM with HS 578T breast; 8.82 µM in the assay on K-562 leukemia; 8.4 µM in the assay on MDA-MB-231 breast; 21.6 µM in the assay on MDA-MB-435; 4.31 µM in the assay with NCI/ADR-RES ovarian; 5.45 µM in the assay with SW-620 colon. For the same compound, the total growth inhibition concentration (TGI) was 20 µM in the assay on HCT-15 colon; 33 µM with A549 NSCLC; 19.4 µM with NCI-H23 lung; 17.4 µM in the assay with SN12C renal; 15.7 µM in the assay on TK-10 renal; 17.3 µM with 786-0 renal. Moreover, the total growth inhibition concentration (TGI) in the assay with SR leukemia was 5.48 µM.
